Article PMC11292009, “Mapping protein binding sites by photoreactive fragment pharmacophores” (Communications Chemistry, 2024)

Legend:
Assay type in all cases: binding
STAT5B-NTD [1] = tested on: T1, STAT5B-NTD; test: Intact MS photoaffinity labeling screen, STAT5B-NTD (365 nm, UHPLC-MS); settings: for MS labeling percentage, STAT5B: STAT5B-NTD, 365 nm 10 min, no photocatalyst; for experimental hit status STAT5B-NTD: 0/1 flag; for STAT5B-NTD: experimental hit status flag (0/1);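 as to MS labeling percentage, STAT5B: 0.17 µL of 100 mM DMSO fragment stock added to the protein sample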
T1 construct: His-SUMO (N, cleaved yes); made in house; host or cells: E. coli BL21 RILP
Method: STAT5B protein in 7 µM concentration in pH 7.4 PBS buffer was pre-incubated with 0.17 µL PhP (in 100 mM DMSO solution) for 1 h at room temperature in dark. Irradiation was carried out at 4 °C for 10 min using 365 nm UV lamp.
(§1) During the analysis, the column temperature was maintained at a constant 60 °C, and a sample volume of 3 µL was injected for each analysis. Data acquisition was conducted in positive ion mode within the m/z 100–2000 (mass-to-charge ratio) range. For the full protocol and spectra of the hits, see Supplementary Note 2.

myoglobin (Myo) = test: Intact protein MS photoaffinity labeling screen, myoglobin; settings: intact protein MS after 10 min irradiation
Method: (§2) Using a plate-based format with one fragment per well, each fragment was incubated with the target proteins for 15 min to allow for the formation of non-covalent interactions. […] Finally, the results were directly analyzed from the plate using intact protein mass spectrometry by observing the mass additions that correspond to successful labeling (Fig. 2c, for labeling % values see Supplementary data). The library was first characterized against three benchmark proteins like carbonic anhydrase (CA), lysozyme (Lyo), and myoglobin (Myo).

lysozyme (Lyo) = test: Intact protein MS photoaffinity labeling screen, lysozyme; settings: intact protein MS after 10 min irradiation
Method: as §2

BRD4-BD1 = tested on: T2, BRD4-BD1; test: Intact MS photoaffinity labeling screen, BRD4-BD1 (302 nm, LCMS-TOF); settings: for MS labeling percentage, BRD4: BRD4-BD1, 302 nm 10 min; for experimental hit status BRD4-BD1: 0/1 flag; for BRD4-BD1: experimental hit status flag (0/1)
T2 construct: screened the PhP library against the first bromodomain of BRD4 (BRD4-BD1); purchased GSK/GenScript
Method: as §2
(§3) The PhP library was screened against BRD4-BD1 and KRas^G12D as follows. […] The probe plate was placed on ice. 15 μL of protein stock solution (1 μM BRD4-BD1 (GSK/GenScript) or KRas^G12D (GSK/GenScript) in PBS buffer) was dispensed into wells containing fragments. The plate was left on ice for 15 min for incubation, then irradiated at 302 nm for 10 min, and centrifuged (1000 rpm, 1 min) to remove any bubbles. […] The deconvoluted spectra were analyzed using R Studio software.

[2] = tested on: carbonic anhydrase II (CA); test: Intact protein MS photoaffinity labeling screen, carbonic anhydrase; settings: intact protein MS after 10 min irradiation
Method: as §2

STAT5B-NTD [3] = tested on: T1, STAT5B-NTD; test: Intact MS labeling screen, STAT5B-NTD conjugated with photocatalyst Ir-G2-PEG3-COOH (450 nm); settings: 450 nm 10 min;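 also: 0.14 µL of 100 mM DMSO fragment stock added to the conjugate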
Method: For the photocatalysis experiments, 1.4 µL photocatalyst (in 1.4 mM DMSO solution, 10 eq) was pre-incubated with 1.5 µL coupling reagent (0.75 µL, 5.6 mM EDC (20 eq)+0.75 µL 4.2 mM NHS and 1.5 µL 2.1 mM (15 eq) BOP for 30 min in dark. 30 µL STAT5B-NTD (in 7 µM concentration) was added and incubated further at room temperature overnight or at 37 °C for 1 h in dark. After addition of 0.14 µL PhP (in 100 mM DMSO) the solution was further incubated in dark for 1 h. Irradiation was carried out using 450 nm LED lamp (7.6Vx0A) for 10 min at 4 °C.
as §1

KRas^G12D = tested on: T3, KRas^G12D; test: Intact MS photoaffinity labeling screen, KRas G12D (302 nm, LCMS-TOF); settings: for MS labeling percentage, KRas: KRas G12D, 302 nm 10 min; for experimental hit status KRAS-G12D: 0/1 flag; for KRAS-G12D: experimental hit status flag (0/1)
T3 construct: purchased GSK/GenScript
Method: as §2, §3

[4] = hit flag 1/0, sheet PhP, photoaffinity labeling screen
[5] = PhP library sheet "PhP", binary flag printed as 0 or 1, key not given
[6] = sheet PhP, experimental hit status flag given as 0 or 1

Row | Compound | MS labeling percentage, STAT5B (STAT5B-NTD [1]) [%] | MS labeling percentage, Myo (myoglobin (Myo)) [%] | MS labeling percentage, Lyo (lysozyme (Lyo)) [%] | MS labeling percentage, BRD4 (BRD4-BD1) [%] | MS labeling percentage, CA [2] [%] | MS labeling percentage, STAT5B+photocat (STAT5B-NTD [3]) [%] | MS labeling percentage, KRas (KRas^G12D) [%] | experimental hit status STAT5B-NTD (STAT5B-NTD [1]) | experimental hit status BRD4-BD1 (BRD4-BD1) | experimental hit status KRAS-G12D (KRas^G12D) | further results
1 | Cn1ccnc1-c1cc(NC(=O)CCC2(C)N=N2)n[nH]1 [PhP043, Cn1ccnc1-c2cc(n[nH]2)NC(=O)CCC3(C)N=N3] | 1 | 0.1 | 0 | 0.8 | 0.5 | 0 | 0.3 |  |  |  | STAT5B-NTD (experimental hit status) (STAT5B-NTD [1]; [4]): 0; BRD4-BD1 (experimental hit status) (BRD4-BD1; [4]): 0; KRAS-G12D (experimental hit status) (KRas^G12D; [4]): 0
2 | CC1(CCC(=O)NC(COCc2ccccc2)C(=O)OCc2ccccc2)N=N1 (centres unmarked) [PhP086, c1ccccc1COC(=O)C(NC(=O)CCC2(C)N=N2)COCc3ccccc3] | 0 | 0.2 | 0 | 0.2 | 0.4 | 4.6 | 0.3 |  |  |  | STAT5B-NTD (experimental hit status) (STAT5B-NTD [1]; [5]): 0; BRD4-BD1 (experimental hit status) (BRD4-BD1; [5]): 0; KRAS-G12D (experimental hit status) (KRas^G12D; [5]): 0
3 | Cn1cnnc1CCNC(=O)CCC1(C)N=N1 [PhP063, Cn1cnnc1CCNC(=O)CCC2(C)N=N2] | 0 | 0.3 | 0 | 49.7 | 0.3 | 0.4 | 0.8 |  |  |  | STAT5B-NTD (experimental hit status) (STAT5B-NTD [1]; [6]): 0; BRD4-BD1 (experimental hit status) (BRD4-BD1; [6]): 0; KRAS-G12D (experimental hit status) (KRas^G12D; [6]): 0
4 | CC1(CCC(=O)NCCNC(=O)c2ccncc2)N=N1 [PhP084, N1=NC1(C)CCC(=O)NCCNC(=O)c2ccncc2] | 0 | 0.4 | 0 | 0.9 | 1.6 | 0.7 | 0.3 |  |  |  | STAT5B-NTD (experimental hit status) (STAT5B-NTD [1]; [5]): 0; BRD4-BD1 (experimental hit status) (BRD4-BD1; [5]): 0; KRAS-G12D (experimental hit status) (KRas^G12D; [5]): 0
5 | CC1(CCC(=O)NCCCCN2CCOCC2)N=N1 [PhP022, N1=NC1(C)CCC(=O)NCCCCN2CCOCC2] | 1 | 0.2 | 0 | 0.6 | 0.5 | 0.4 | 0.5 | 0 | 0 | 0 | 
6 | CC1(CCC(=O)NCCCc2nc[nH]n2)N=N1 [PhP066, N1=NC1(C)CCC(=O)NCCCc2nc[nH]n2] | 0 | 0.3 | 0 | 0.3 | 0.3 | 0 | 0.2 |  |  |  | STAT5B-NTD (experimental hit status) (STAT5B-NTD [1]; [6]): 0; BRD4-BD1 (experimental hit status) (BRD4-BD1; [6]): 0; KRAS-G12D (experimental hit status) (KRas^G12D; [6]): 0
7 | CCC(NC(=O)CCC1(C)N=N1)c1ccccc1OC (centres unmarked) [PhP032, N1=NC1(C)CCC(=O)NC(CC)c2ccccc2OC] | 2.9 | 0.3 | 0 | 0.3 | 0.2 | 1.9 | 0 | 0 | 0 | 0 | 
8 | CC1(CCC(=O)NCCNC(=O)c2ccc(Cl)cc2)N=N1 [PhP027, N1=NC1(C)CCC(=O)NCCNC(=O)c2ccc(Cl)cc2] | 1 | 0.2 | 0 | 0.5 | 0.4 | 5.2 | 0.1 | 0 | 0 | 0 | 
9 | CC1(CCC(=O)NCCc2c[nH]c3ccc(OCc4ccccc4)cc23)N=N1 [PhP081, N1=NC1(C)CCC(=O)NCCc(c[nH]2)c(c23)cc(cc3)OCc4ccccc4] | 1 | 0.3 | 2.8 | 0.5 | 0 | 4 | 0.5 |  |  |  | STAT5B-NTD (experimental hit status) (STAT5B-NTD [1]; [5]): 0; BRD4-BD1 (experimental hit status) (BRD4-BD1; [5]): 0; KRAS-G12D (experimental hit status) (KRas^G12D; [5]): 0
10 | CC(Cc1cccc(OCc2ccccc2)c1)NC(=O)CCC1(C)N=N1 (centres unmarked) [PhP013, N1=NC1(C)CCC(=O)NC(C)Cc2cccc(c2)OCc3ccccc3] | 0 | 0.3 | 0.3 | 40.6 | 0.4 | 8.8 |  |  |  |  | STAT5B-NTD (STAT5B-NTD [1]): 0; BRD4-BD1 (BRD4-BD1): 0; KRAS-G12D (KRas^G12D): 0
11 | C[C@@H](NC(=O)CCC1(C)N=N1)[C@@H](O)c1cccc(O)c1 [PhP070, Oc(c1)cccc1[C@H](O)[C@@H](C)NC(=O)CCC2(C)N=N2] | 1 | 0.1 | 1 | 0.3 | 0 | 4.2 | 0 |  |  |  | STAT5B-NTD (experimental hit status) (STAT5B-NTD [1]; [6]): 0; BRD4-BD1 (experimental hit status) (BRD4-BD1; [6]): 0; KRAS-G12D (experimental hit status) (KRas^G12D; [6]): 0
12 | COc1ccc(CNC(=O)CCC2(C)N=N2)cn1 [PhP039, COc1ccc(cn1)CNC(=O)CCC2(C)N=N2] | 1 | 0.3 | 0 | 0.5 | 0.5 | 1.3 | 0.2 |  |  |  | STAT5B-NTD (experimental hit status) (STAT5B-NTD [1]; [4]): 0; BRD4-BD1 (experimental hit status) (BRD4-BD1; [4]): 0; KRAS-G12D (experimental hit status) (KRas^G12D; [4]): 0
13 | Cc1nc2cc(NC(=O)CCC3(C)N=N3)ccc2n1-c1ccccc1 [PhP017, c1ccccc1-n(c(n2)C)c(c23)ccc(c3)NC(=O)CCC4(C)N=N4] | 1 | 0.5 | 0.1 | 3.4 | 0.6 | 4.4 | 0.9 |  |  |  | STAT5B-NTD (STAT5B-NTD [1]): 0; BRD4-BD1 (BRD4-BD1): 0; KRAS-G12D (KRas^G12D): 0
14 | CC1(CCC(=O)NCc2cccc(C(=O)OC(C)(C)C)c2)N=N1 [PhP024, CC(C)(C)OC(=O)c1cccc(c1)CNC(=O)CCC2(C)N=N2] | 0 | 0.2 | 0 | 1.4 | 0.2 | 7.2 | 0.1 | 0 | 0 | 0 | 
15 | Cc1nn(C)cc1CNC(=O)CCC1(C)N=N1 [PhP021, Cc1nn(C)cc1CNC(=O)CCC2(C)N=N2] | 1 | 0.3 | 0 | 0.9 | 0.7 | 0.4 | 0.2 | 0 | 0 | 0 | 
